Assay results published in ChEMBL document CHEMBL5291721, “A preclinical secondary pharmacology resource illuminates target-adverse drug reaction associations of marketed drugs” (Nat Commun, 2023).

Key:
[1] = target: 5-hydroxytryptamine receptor 2A (Homo sapiens, UniProt P28223)
D(1A) dopamine receptor = D(1A) dopamine receptor (Homo sapiens, UniProt P21728)
Progesterone receptor = target: T1, Progesterone receptor (Homo sapiens, UniProt P06401)
T1 sequence (P06401 whole entry): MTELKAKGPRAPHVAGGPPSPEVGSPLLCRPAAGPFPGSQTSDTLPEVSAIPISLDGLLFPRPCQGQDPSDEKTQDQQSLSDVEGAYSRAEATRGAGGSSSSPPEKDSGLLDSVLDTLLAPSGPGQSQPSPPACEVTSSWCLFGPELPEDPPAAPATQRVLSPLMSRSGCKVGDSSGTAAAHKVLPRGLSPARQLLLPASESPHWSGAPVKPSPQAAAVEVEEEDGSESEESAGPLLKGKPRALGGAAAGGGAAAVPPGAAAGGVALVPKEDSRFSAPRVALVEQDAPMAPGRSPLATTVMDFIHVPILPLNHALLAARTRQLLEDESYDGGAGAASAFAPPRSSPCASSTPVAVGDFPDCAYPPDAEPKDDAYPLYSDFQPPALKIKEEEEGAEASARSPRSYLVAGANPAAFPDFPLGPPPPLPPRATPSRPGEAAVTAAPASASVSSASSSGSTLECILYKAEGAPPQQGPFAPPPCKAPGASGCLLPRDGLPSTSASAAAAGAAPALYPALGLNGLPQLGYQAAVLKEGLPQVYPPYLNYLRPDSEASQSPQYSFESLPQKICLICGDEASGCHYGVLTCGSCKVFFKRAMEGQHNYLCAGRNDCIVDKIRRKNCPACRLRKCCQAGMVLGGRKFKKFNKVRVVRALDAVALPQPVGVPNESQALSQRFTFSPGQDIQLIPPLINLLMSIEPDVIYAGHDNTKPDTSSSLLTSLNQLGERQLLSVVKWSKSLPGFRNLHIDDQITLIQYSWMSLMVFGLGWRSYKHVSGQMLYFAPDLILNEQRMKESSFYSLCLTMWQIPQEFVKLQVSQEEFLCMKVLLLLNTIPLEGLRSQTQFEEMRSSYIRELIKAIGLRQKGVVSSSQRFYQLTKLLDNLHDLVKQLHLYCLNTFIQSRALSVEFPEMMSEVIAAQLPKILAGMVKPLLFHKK

[2] = target: T2, 5-hydroxytryptamine receptor 1A (Homo sapiens, UniProt P08908)
T2 sequence (P08908 whole entry): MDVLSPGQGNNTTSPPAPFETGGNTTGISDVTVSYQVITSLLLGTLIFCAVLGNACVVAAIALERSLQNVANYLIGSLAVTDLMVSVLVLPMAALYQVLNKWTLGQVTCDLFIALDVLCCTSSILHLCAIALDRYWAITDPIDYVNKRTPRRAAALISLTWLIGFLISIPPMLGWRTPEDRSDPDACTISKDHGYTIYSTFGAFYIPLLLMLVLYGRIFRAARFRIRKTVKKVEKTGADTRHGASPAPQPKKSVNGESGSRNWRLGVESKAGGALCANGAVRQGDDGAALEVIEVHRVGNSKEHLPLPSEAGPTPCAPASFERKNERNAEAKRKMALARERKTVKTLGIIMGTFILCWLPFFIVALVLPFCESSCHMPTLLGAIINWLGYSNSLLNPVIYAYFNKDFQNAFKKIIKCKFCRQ

[3] = target: T3, Alpha-2A adrenergic receptor (Homo sapiens, UniProt P08913)
T3 sequence (P08913 whole entry): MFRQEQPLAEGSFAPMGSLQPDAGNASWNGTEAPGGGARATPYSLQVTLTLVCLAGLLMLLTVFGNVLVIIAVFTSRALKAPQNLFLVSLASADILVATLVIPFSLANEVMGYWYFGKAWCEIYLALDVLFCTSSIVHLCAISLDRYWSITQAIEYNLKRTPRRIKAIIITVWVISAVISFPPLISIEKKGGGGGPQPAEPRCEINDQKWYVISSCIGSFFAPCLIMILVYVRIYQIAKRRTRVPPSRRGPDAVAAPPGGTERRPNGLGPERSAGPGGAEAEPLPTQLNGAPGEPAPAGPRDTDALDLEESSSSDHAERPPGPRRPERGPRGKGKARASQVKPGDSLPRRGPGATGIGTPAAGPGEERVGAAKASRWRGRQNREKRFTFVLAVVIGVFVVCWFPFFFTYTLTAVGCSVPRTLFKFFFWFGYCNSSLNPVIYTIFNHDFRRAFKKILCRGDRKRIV

[4] = target: 5-hydroxytryptamine receptor 2B (Homo sapiens, UniProt P41595)
[5] = target: Beta-2 adrenergic receptor (Homo sapiens, UniProt P07550); type: functional, cell-based
Histamine H1 receptor [6] = target: T4, Histamine H1 receptor (Homo sapiens, UniProt P35367); type: functional, cell-based
Histamine H1 receptor [7] = target: T4, Histamine H1 receptor; type: functional, cell-based; remark: listed apart in the source
[8] = target: T5, Peroxisome proliferator-activated receptor gamma (Homo sapiens, UniProt P37231); type: functional
T5 sequence (P37231 whole entry): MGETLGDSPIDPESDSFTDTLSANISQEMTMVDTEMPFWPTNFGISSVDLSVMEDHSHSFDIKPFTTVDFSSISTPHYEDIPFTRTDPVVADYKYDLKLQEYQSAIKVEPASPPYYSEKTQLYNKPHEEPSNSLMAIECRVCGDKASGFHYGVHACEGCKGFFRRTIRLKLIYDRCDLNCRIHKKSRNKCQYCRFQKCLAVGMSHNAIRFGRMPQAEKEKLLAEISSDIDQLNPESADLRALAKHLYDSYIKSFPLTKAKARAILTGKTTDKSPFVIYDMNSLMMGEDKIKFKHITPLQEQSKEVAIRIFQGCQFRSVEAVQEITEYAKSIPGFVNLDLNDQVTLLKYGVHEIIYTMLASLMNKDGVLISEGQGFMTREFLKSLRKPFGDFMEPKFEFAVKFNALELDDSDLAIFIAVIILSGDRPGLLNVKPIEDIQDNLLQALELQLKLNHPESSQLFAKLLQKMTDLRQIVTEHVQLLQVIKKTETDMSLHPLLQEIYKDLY

Glucagon receptor = Glucagon receptor (Homo sapiens, UniProt P47871)
[9] = target: 5-hydroxytryptamine receptor 7 (Homo sapiens, UniProt P34969)
Also: assay procedure not described here.

Chain of Beta-2 adrenergic receptor (P07550 whole entry): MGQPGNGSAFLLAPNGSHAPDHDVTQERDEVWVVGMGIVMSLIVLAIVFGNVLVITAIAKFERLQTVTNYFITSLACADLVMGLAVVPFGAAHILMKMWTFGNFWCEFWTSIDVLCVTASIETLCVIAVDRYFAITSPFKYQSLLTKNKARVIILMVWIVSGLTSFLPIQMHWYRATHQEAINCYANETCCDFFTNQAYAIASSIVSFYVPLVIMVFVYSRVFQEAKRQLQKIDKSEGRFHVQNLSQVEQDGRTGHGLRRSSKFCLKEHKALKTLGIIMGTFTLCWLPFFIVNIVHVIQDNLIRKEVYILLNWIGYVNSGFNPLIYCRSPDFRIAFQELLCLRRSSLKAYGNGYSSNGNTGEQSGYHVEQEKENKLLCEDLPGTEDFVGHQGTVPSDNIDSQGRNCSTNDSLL
Chain of 5-hydroxytryptamine receptor 7 (P34969 whole entry): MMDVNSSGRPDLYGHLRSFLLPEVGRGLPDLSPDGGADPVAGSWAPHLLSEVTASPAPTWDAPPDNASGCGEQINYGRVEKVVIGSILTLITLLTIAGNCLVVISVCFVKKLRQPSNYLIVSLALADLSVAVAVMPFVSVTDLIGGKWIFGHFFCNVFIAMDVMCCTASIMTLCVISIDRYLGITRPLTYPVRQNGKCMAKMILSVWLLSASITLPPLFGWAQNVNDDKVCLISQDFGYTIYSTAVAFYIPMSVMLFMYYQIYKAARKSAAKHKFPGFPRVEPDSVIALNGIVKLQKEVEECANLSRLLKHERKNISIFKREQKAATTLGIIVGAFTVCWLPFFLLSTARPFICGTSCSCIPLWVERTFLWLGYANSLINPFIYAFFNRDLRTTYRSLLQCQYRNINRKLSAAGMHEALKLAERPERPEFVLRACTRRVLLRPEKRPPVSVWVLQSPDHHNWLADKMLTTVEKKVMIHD
Chain of D(1A) dopamine receptor (P21728 whole entry): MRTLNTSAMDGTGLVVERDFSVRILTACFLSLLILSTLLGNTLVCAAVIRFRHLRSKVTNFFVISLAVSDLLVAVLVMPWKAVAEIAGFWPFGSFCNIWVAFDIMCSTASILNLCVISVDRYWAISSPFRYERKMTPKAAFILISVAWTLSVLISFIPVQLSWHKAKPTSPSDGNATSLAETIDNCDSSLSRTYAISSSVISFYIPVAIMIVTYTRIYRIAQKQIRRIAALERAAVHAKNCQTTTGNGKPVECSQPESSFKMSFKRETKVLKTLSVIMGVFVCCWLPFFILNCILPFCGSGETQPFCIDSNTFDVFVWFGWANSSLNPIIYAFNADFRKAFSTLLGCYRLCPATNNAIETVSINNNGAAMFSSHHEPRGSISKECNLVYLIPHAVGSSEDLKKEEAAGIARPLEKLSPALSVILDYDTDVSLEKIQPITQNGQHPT
Chain of Glucagon receptor (P47871 whole entry): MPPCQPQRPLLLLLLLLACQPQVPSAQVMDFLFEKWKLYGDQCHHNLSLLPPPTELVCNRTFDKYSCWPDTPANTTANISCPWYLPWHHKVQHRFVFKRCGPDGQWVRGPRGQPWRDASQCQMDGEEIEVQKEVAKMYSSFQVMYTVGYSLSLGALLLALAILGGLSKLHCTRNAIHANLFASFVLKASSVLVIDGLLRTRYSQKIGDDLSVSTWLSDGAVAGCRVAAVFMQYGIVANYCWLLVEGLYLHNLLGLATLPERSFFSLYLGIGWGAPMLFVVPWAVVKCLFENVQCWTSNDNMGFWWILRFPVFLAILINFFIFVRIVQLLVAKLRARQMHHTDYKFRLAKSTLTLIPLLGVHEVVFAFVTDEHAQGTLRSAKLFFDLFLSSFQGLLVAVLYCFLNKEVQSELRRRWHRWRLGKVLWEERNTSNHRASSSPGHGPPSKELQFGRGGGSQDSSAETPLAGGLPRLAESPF
Chain of 5-hydroxytryptamine receptor 2A (P28223 whole entry): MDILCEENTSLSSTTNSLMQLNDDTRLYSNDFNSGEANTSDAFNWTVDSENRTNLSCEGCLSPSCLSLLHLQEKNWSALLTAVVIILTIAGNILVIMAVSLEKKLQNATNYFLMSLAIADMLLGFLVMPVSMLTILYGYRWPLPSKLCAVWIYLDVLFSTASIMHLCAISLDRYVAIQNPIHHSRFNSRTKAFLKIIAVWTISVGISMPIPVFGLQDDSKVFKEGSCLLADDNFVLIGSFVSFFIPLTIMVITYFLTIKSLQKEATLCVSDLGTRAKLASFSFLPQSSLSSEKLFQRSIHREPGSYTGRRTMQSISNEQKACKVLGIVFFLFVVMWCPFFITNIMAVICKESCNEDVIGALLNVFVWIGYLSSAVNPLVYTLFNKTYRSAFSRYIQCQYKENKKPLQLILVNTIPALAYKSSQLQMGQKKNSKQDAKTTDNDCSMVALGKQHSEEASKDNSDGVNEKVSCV
T4 sequence (P35367 whole entry): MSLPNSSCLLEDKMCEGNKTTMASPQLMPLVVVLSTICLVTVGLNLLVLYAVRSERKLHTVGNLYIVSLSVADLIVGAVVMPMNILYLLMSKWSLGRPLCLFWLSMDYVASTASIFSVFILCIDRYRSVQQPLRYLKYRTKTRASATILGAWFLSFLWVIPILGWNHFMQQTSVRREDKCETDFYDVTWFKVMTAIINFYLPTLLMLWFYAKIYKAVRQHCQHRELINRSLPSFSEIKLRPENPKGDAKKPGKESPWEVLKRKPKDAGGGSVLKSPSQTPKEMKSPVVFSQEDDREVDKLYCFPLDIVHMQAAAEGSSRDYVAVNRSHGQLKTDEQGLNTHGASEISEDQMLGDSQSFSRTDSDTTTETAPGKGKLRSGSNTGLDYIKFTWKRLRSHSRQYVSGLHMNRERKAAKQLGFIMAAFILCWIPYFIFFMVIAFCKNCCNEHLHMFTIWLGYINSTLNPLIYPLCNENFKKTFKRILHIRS
Chain of 5-hydroxytryptamine receptor 2B (P41595 whole entry): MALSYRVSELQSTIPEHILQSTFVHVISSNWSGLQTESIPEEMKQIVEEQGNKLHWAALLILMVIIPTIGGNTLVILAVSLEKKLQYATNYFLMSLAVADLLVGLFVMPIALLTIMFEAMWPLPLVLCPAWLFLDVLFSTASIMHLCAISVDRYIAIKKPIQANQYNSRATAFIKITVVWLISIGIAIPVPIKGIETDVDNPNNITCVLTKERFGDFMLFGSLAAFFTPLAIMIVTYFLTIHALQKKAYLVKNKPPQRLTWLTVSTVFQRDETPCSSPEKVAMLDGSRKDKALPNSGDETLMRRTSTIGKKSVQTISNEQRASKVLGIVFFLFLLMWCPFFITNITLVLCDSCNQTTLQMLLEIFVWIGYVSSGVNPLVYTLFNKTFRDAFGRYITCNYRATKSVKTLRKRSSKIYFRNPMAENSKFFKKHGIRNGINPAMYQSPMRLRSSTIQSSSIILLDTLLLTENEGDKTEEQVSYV

SMILES | AC50 [1] | AC50 (D(1A) dopamine receptor) | AC50 [2] | AC50 [3] | AC50 [4] | AC50 [5] | also measured
CC(C(=O)O)c1ccc(N2Cc3ccccc3C2=O)cc1 (stereo unspecified) [INDOPROFEN] | > 10 µM | > 30 µM | – | – | – | – | –
CC(C)(C)c1cc(C(C)(C)C)c(NC(=O)c2c[nH]c3ccccc3c2=O)cc1O [IVACAFTOR] | > 10 µM | > 10 µM | > 10 µM | > 10 µM | > 10 µM | – | AC50 (Progesterone receptor): > 30 µM
CC(C)OC(=O)CCC/C=C\C[C@@H]1[C@@H](CC[C@@H](O)CCc2ccccc2)[C@H](O)C[C@@H]1O [LATANOPROST] | – | – | – | – | – | > 30 µM | AC50 (Histamine H1 receptor [6]): > 30 µM; AC50 (Histamine H1 receptor [7]): > 30 µM; AC50 [8]: > 30 µM
CC(Oc1c(Cl)cccc1Cl)C1=NCCN1 (stereo unspecified) [LOFEXIDINE] | – | – | 0.29 µM | – | – | – | –
C[C@H](N)[C@H](O)c1cccc(O)c1 [METARAMINOL] | > 10 µM | – | – | – | > 30 µM | – | –
CCC1(CC)C(=O)NCC(C)C1=O (stereo unspecified) [METHYPRYLON] | – | – | – | – | – | > 30 µM | AC50 (Histamine H1 receptor [6]): > 30 µM; AC50 (Histamine H1 receptor [7]): > 30 µM; AC50 [8]: > 30 µM
CCOC(=O)[N-]c1cn(N2CCOCC2)n[o+]1 [MOLSIDOMINE] | – | – | – | – | – | > 30 µM | –
OC(CNCC(O)C1CCc2cc(F)ccc2O1)C1CCc2cc(F)ccc2O1 (stereo unspecified) [NEBIVOLOL] | – | – | 0.14 µM | – | – | – | –
CCCc1nc(C(C)(C)O)c(C(=O)OCc2oc(=O)oc2C)n1Cc1ccc(-c2ccccc2-c2nnn[nH]2)cc1 [OLMESARTAN MEDOXOMIL] | > 10 µM | > 10 µM | > 10 µM | > 10 µM | > 10 µM | – | AC50 (Progesterone receptor): > 30 µM; AC50 (Glucagon receptor): > 50 µM; AC50 [9]: > 10 µM
N#Cc1ccc([C@H]2CCc3cncn32)c(F)c1 [OSILODROSTAT] | – | > 10 µM | > 10 µM | > 10 µM | > 10 µM | – | AC50 [9]: > 10 µM
Clc1ccc(CCCOCCCN2CCCCC2)cc1 [PITOLISANT] | – | – | – | – | – | > 30 µM | –
CCCN(CCC)C(=O)C(CCC(=O)O)NC(=O)c1ccccc1 (stereo unspecified) [PROGLUMIDE] | – | > 10 µM | > 10 µM | > 10 µM | > 10 µM | – | AC50 (Progesterone receptor): > 30 µM; AC50 (Glucagon receptor): > 30 µM
C=CCC1(C(C)CC)C(=O)NC(=O)NC1=O (stereo unspecified) [TALBUTAL] | > 10 µM | – | – | – | – | – | –
CN1C(=O)C(O)N=C(c2ccccc2)c2cc(Cl)ccc21 (stereo unspecified) [TEMAZEPAM] | > 10 µM | > 10 µM | > 10 µM | > 10 µM | > 10 µM | > 30 µM | AC50 (Progesterone receptor): > 30 µM; AC50 (Glucagon receptor): > 30 µM
C/C(O)=C(\C#N)C(=O)Nc1ccc(C(F)(F)F)cc1 [TERIFLUNOMIDE] | – | – | – | – | – | > 30 µM | AC50 [8]: > 30 µM
CN1CCN(CC/C=C2/c3ccccc3Sc3ccc(S(=O)(=O)N(C)C)cc32)CC1 [THIOTHIXENE] | – | 0.0774 µM | – | 0.755 µM | 0.857 µM | – | AC50 (Progesterone receptor): > 30 µM; AC50 (Glucagon receptor): > 30 µM; AC50 [9]: 0.254 µM
COc1cc2c(N)nc(N3CCN(C(=O)OCC(C)(C)O)CC3)nc2c(OC)c1OC [TRIMAZOSIN] | – | – | – | – | – | > 30 µM | –
O=C(NCCNCC(O)COc1ccc(O)cc1)N1CCOCC1 (stereo unspecified) [XAMOTEROL] | – | – | – | – | – | – | AC50 (Histamine H1 receptor [6]): > 30 µM; AC50 (Histamine H1 receptor [7]): > 30 µM
